Data set [1] deals with Metastatic Breast Cancer. Nature of the data set: Skipper log cell kill model projection for trastuzumab regimens (antagonistic scenario). To be noted: estimated from AC group, 23%÷68%.
In data set [2] the test system is Metastatic Breast Cancer. The settings on record: cytotoxics q 21 days × 6, trastuzumab q week, actual Phase III data; cited from earlier work.
For data set [3] the following is noted: rifampicin co-administered with erlotinib; cited from earlier work.
The conditions of data set [4]: in vivo; cited from earlier work.

Structures are written as SMILES.

The text below walks through data of patent US7507704B1, “Receptor modulated cancer protocols” (priority 2002, dated 2009).

Turning to `O=P1(N(CCCl)CCCl)NCCCO1` (stereo not shown) [C, cyclophosphamide], the “"stand alone" tumor kill rate” value in data set [1] is recorded as 34%. Turning to `CC(=O)O[C@H]1C(=O)[C@@]2(C)[C@H]([C@H](OC(=O)c3ccccc3)[C@]3(O)C[C@H](OC(=O)[C@H](O)[C@@H](NC(=O)c4ccccc4)c4ccccc4)C(C)=C1C3(C)C)[C@]1(OC(C)=O)CO[C@@H]1C[C@@H]2O` [Paclitaxel], in data set [2], the “Median Survival” value was 18.4 months. Regarding `CO[C@H]1/C=C/O[C@@]2(C)Oc3c(C)c(O)c4c(O)c(c(/C=N/N5CCN(C)CC5)c(O)c4c3C2=O)NC(=O)/C(C)=C\C=C\[C@H](C)[C@H](O)[C@@H](C)[C@@H](O)[C@@H](C)[C@H](OC(C)=O)[C@@H]1C` [Rifampicin], the “increased clearance of erlotinib” value in data set [3] is given as 3 fold. For the compound `CC/C(=C(\c1ccccc1)c1ccc(OCCN(C)C)cc1)c1ccccc1` [Tamoxifen], the “plasma concentration half life” value in data set [4] was 120 to 170 h.
